Where two headings read alike, the source gives them in different places.

Assay [1] has as its target E. coli MurD (Escherichia coli, UniProt P14900). As to the kind of experiment: biochemical. The settings on record: for remaining activity at 100 µM: 0.25 h, Table S1, PKIS screening, read-out: RA [%] at 100 µM MurD. In outline:
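Orthophosphate released by E. coli MurD quantified by malachite green (Biomol green) absorbance at 650 nm after 15 min at 37 °C. Residual activity relative to DMSO-only controls.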

The target of assay [2] is E. coli MurF (Escherichia coli, UniProt P11880). As to the kind of experiment: biochemical. As to conditions: Table S1, PKIS screening; for remaining activity at 100 µM: 0.25 h, read-out: RA [%] at 100 µM MurF.
In assay [3] the target is E. coli MurC (Escherichia coli, UniProt P17952). As to the kind of experiment: Malachite green inhibition assay, MurC. In kind it is biochemical. As to conditions: for remaining activity at 100 µM: 0.25 h.
Where [4] appears, read: Table S1, PKIS screening, read-out: RA [%] at 100 µM MurC.
Where [5] appears, read: read-out: RA [%] at 100 µM MurC, Table S1, PKIS screening.

Sequence of E. coli MurC (P17952 whole entry): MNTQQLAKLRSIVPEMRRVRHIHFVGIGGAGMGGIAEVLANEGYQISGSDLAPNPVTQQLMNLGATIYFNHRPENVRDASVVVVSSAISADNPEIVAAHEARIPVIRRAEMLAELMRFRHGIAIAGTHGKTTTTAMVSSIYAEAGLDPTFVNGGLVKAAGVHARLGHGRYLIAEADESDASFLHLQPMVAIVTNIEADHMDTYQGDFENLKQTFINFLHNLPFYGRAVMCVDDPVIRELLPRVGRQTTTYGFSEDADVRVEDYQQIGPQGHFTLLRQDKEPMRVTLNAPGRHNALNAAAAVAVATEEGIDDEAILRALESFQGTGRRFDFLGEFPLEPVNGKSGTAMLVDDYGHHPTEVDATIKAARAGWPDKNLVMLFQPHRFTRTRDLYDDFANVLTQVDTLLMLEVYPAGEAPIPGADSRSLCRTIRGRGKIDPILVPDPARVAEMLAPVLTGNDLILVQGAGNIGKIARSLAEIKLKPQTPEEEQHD
Sequence of E. coli MurF (P11880 whole entry): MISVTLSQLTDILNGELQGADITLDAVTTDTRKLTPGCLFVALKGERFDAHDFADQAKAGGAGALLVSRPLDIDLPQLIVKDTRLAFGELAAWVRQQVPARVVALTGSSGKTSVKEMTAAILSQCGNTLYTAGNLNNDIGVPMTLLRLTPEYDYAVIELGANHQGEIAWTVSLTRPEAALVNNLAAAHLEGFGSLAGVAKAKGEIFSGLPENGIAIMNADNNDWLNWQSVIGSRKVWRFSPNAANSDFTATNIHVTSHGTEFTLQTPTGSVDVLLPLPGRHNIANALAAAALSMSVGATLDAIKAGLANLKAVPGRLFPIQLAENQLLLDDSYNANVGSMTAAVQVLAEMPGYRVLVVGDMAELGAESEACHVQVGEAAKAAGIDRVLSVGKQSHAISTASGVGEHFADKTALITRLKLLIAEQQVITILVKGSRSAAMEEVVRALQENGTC
Sequence of E. coli MurD (P14900 whole entry): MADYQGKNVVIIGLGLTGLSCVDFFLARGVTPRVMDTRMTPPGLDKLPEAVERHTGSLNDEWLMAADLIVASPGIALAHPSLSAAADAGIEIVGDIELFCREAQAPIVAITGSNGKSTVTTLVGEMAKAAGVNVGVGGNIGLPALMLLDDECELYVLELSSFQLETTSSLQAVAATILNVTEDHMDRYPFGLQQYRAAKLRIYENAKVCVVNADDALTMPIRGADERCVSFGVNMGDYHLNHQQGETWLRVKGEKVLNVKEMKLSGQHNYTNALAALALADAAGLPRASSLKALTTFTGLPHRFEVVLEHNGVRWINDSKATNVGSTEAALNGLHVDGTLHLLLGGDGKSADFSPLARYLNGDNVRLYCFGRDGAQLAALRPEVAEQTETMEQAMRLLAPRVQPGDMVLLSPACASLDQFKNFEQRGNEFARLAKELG

Take `O=C(NCC1CC1)c1ccc(-c2cccc(C(=O)NC3CC3)c2)cc1` [GW806776X]: the remaining activity at 100 µM in assay [1] turned out to be 95%; in assay [2], 78%; in assay [3] (setting [4]), 84%.
Taken in the same sequence, the figures for `CCOc1ccc2c(-c3ccnc(Nc4cc(OC)cc(C(F)(F)F)c4)n3)cnn2n1` [GW807982X] were 78%, 50% and 55%.
For `COc1cccc(-n2nc(C)c3c(N/N=C(\C)c4ccncc4)ncnc32)c1` [GW809885X], in that order: 74%, 100% and 76%.
For `CN(c1ccc(NC(=O)Nc2c(Cl)cccc2Cl)cc1)c1ccnc(Nc2cccc(CS(C)(=O)=O)c2)n1` [GW809897X], in that order: 55%, 51% and 26%.
For the compound `COc1ccc2c(-c3ccnc(Nc4cccc(OC(F)(F)F)c4)n3)cnn2n1` [GW810372X], the remaining activity at 100 µM in assay [1] is 70%; in assay [2], 73%; in assay [3] (setting [4]) it was 46%.
Taken in the same sequence, the figures for `COc1cccc(-n2ncc3c(N/N=C/c4ccc(S(C)(=O)=O)cc4)ncnc32)c1` [GW811168X] were 87%, 35% and 57%.
For `CCOc1ccc2c(-c3ccnc(Nc4cccc(C(F)(F)F)c4)n3)cnn2n1` [GW811761X], the figures for the remaining activity at 100 µM in assay [1], in assay [2] and in assay [3] (setting [4]) were 93%, 74% and 64%, respectively.
Taken in the same sequence, the figures for `COc1cccc(-n2cnc3c(N/N=C/c4ccncc4)ncnc32)c1` [GW813360X] were 84%, 81% and 65%.
As to `COc1cccc(-n2ncc3c(N/N=C/c4cccc(F)c4)ncnc32)c1` [GW817394X], the values for the remaining activity at 100 µM in assay [1], in assay [2] and in assay [3] (setting [4]) were 81%, 46% and 64%, respectively.
Regarding `COc1cccc(-n2ncc3c(N/N=C/c4ccc(F)cc4)ncnc32)c1` [GW817396X], the figures for the remaining activity at 100 µM in assay [1], in assay [2] and in assay [3] (setting [4]) were 95%, 41% and 69%, respectively.
For `FC(F)(F)c1cccc(Nc2nccc(-c3cnn4nc(-c5ccccc5)ccc34)n2)c1` [GW819077X], in that order: 63%, 58% and 50%.
Taken in the same sequence, the figures for `Cc1ccc(C(=O)NC2CC2)cc1-c1ccc2[nH]ncc2c1` [GW820759X] were 100%, 86% and 63%.
For the compound `COc1ccc(-c2nn3ncccc3c2-c2ccnc(Nc3ccc4c(c3)OCCO4)n2)cc1` [GW827106X], the remaining activity at 100 µM in assay [1] came out at 32%; in assay [2], 49%; in assay [3] (setting [5]), 13%.
As for `COc1ccc(-c2nn3ncccc3c2-c2ccnc(Nc3ccc(F)c(F)c3)n2)cc1` [GW827396X], the remaining activity at 100 µM in assay [1] was 61%; in assay [2], 61%; in assay [3] (setting [4]) it was 79%.
On to `FC(F)(F)c1ccc(-c2nn3ncccc3c2-c2ccnc(Nc3ccc4c(c3)OCCO4)n2)cc1` [GW828525X], for which the results for the remaining activity at 100 µM in assay [1], in assay [2] and in assay [3] (setting [5]) were 90%, 47% and 21%, respectively.
For the compound `COc1cccc(/C=N/Nc2ncnc3c2cnn3-c2cccc(OC)c2)c1` [GW829874X], the remaining activity at 100 µM in assay [1] was found to be 78%; in assay [2], 85%; in assay [3] (setting [4]), 69%.
For `COc1cccc(-n2ncc3c(N/N=C/c4ccc(C)cc4)ncnc32)c1` [GW829877X], in that order: 85%, 76% and 70%.
For `CN1CCN(C(=O)c2ccc(NC(=O)Nc3ccc(N(C)c4ccnc(Nc5ccc(CS(C)(=O)=O)cc5)n4)cc3)cc2)CC1` [GW830263A], in that order: 69%, 73% and 51%.
As to `CN(C)CCNC(=O)Nc1ccc(N(C)c2ccnc(Nc3ccc(CS(C)(=O)=O)cc3)n2)cc1` [GW830900A], the remaining activity at 100 µM in assay [1] worked out at 91%; in assay [2], 75%; in assay [3] (setting [4]), 74%.
`Cc1ccc2c(-c3ccnc(Nc4ccc5c(c4)OCCO5)n3)c(-c3ccc(C(F)(F)F)cc3)nn2n1` [GW832467X]: the remaining activity at 100 µM worked out at 62% in assay [1], 73% in assay [2] and 22% in assay [3] (setting [5]).
Regarding `COc1cc2ncn(-c3cc(OCc4ccccc4C(F)(F)F)c(C(N)=O)s3)c2cc1OC` [GW843682X], the remaining activity at 100 µM in assay [1] amounted to 82%; in assay [2], 83%; in assay [3] (setting [4]), 65%.
Taken in the same sequence, the figures for `COc1cc2ncn(-c3cc(OCc4ccccc4Cl)c(C(N)=O)s3)c2cc1OC` [GW852849X] were 81%, 85% and 67%.
Taken in the same sequence, the figures for `NC(=O)c1sc(-n2cnc3ccc(C(F)(F)F)cc32)cc1OCc1ccccc1Br` [GW853606X] were 86%, 75% and 64%.
Taken in the same sequence, the figures for `Nc1ncc(-c2cccc(S(N)(=O)=O)c2)c2scc(-c3ccc(F)c(Cl)c3)c12` [GW856804X] were 75%, 71% and 64%.
On to `O=C(O[C@H]1CN[C@H](C#Cc2cc3ncnc(Nc4ccc(OCc5cccc(F)c5)c(Cl)c4)c3s2)C1)N1CCOCC1` [GW869810X], for which the remaining activity at 100 µM is 55% in assay [1], 77% in assay [2] and 65% in assay [3] (setting [4]).
On to `Fc1ccc(-c2ncn(CCCN3CCOCC3)c2-c2ccncc2)cc1` [SB-210313], for which the figures for the remaining activity at 100 µM in assay [1], in assay [2] and in assay [3] (setting [4]) were 91%, 100% and 100%, respectively.
As to `Nc1nccc(-c2c(-c3ccc(F)cc3)ncn2CCCN2CCOCC2)n1` [SB-216385], the results for the remaining activity at 100 µM in assay [1], in assay [2] and in assay [3] (setting [4]) were 96%, 98% and 77%, respectively.
As to `Nc1nccc(-c2c(-c3ccc(F)cc3)ncn2C2CCNCC2)n1` [SB-220025-A], the “RA [%] at 100 µM MurD” value in assay [1] is reported as 99. Besides, the “RA [%] at 100 µM MurF” value in assay [2] is listed as 96%. Besides, the “RA [%] at 100 µM MurC” value in assay [3] (Table S1, PKIS screening) is reported as 98%.
For `Nc1nccc(-c2c(-c3ccc(F)cc3)ncn2C2CCNCC2)n1` [SB-220025-R#3], in that order: 87, 100% and 81%.
With `CN1CCC(n2cnc(-c3ccc(F)cc3)c2-c2ccnc(N)n2)CC1` [SB-220455], the remaining activity at 100 µM in assay [1] was 81%; in assay [2] it was 100%; in assay [3] (setting [5]), 76%.
Take `CC1(C)CC(n2cnc(-c3ccc(F)cc3)c2-c2ccnc(N)n2)CC(C)(C)N1` [SB-221466]: the remaining activity at 100 µM in assay [1] is 93%; in assay [2], 100%; in assay [3] (setting [4]) it was 91%.
In the case of `Nc1nccc(-c2c(-c3ccc(F)cc3)ncn2C2CCC(O)CC2)n1` (stereo not drawn) [SB-223133], the remaining activity at 100 µM in assay [1] was 87%; in assay [2], 88%; in assay [3] (setting [4]), 64%.
Regarding `CN1CCC(n2cnc(-c3ccc(F)cc3)c2-c2ccnc(NCCO)n2)CC1` [SB-226879], the values for the remaining activity at 100 µM in assay [1], in assay [2] and in assay [3] (setting [5]) were 98%, 68% and 65%, respectively.
For the compound `CN1CCC(n2cnc(-c3ccc(F)cc3)c2-c2ccnc(Nc3ccccc3)n2)CC1` [SB-236687], the remaining activity at 100 µM in assay [1] came out at 90%; in assay [2], 67%; in assay [3] (setting [4]), 79%.
With `Fc1ccc(-c2ncn(C3CCNCC3)c2-c2ccnc(Oc3ccccc3)n2)cc1` [SB-239272], the remaining activity at 100 µM in assay [1] stood at 67%; in assay [2], 75%; in assay [3] (setting [4]), 100%.
For `NC(=O)c1ccc(Oc2nccc(-c3c(-c4ccc(F)cc4)ncn3C3CCNCC3)n2)cc1` [SB-242718], in that order: 65%, 69% and 39%.
`CCc1ccc(Oc2nccc(-c3c(-c4ccc(F)cc4)ncn3C3CCNCC3)n2)cc1` [SB-242719]: the remaining activity at 100 µM was found to be 87% in assay [1], 80% in assay [2] and 51% in assay [3] (setting [5]).
Regarding `Fc1ccc(-c2ncn(C3CCNCC3)c2-c2ccnc(Oc3ccc(Oc4ccccc4)cc3)n2)cc1` [SB-245392], the remaining activity at 100 µM is 41% in assay [1], 41% in assay [2] and 27% in assay [3] (setting [4]).
Take `Fc1ccc(-c2ncn(C3CCNCC3)c2-c2ccnc(Oc3ccc4c(c3)OCO4)n2)cc1` [SB-250715]: the figures for the remaining activity at 100 µM in assay [1], in assay [2] and in assay [3] (setting [5]) were 65%, 85% and 51%, respectively.
Regarding `Fc1ccc(-c2ncn(C3CCNCC3)c2-c2ccnc(Oc3ccc(F)c(F)c3)n2)cc1` [SB-253228], the remaining activity at 100 µM stood at 40% in assay [1], 70% in assay [2] and 32% in assay [3] (setting [4]).

The record behind these values is article PMC6522912, “Evaluation of the published kinase inhibitor set to identify multiple inhibitors of bacterial ATP-dependent mur ligases” (Journal of Enzyme Inhibition and Medicinal Chemistry, 2019).
